Test results from US20210261621A1, “Preparation of Dilipid Polymixins and Use Thereof as Antimicrobial Adjuvants” (priority 2018, published 2021).
Values after ≈ are worked out from the molar mass of the structure shown. Like-named read-outs stand apart in the source and are kept apart here. Positions of bridges follow the written chain, without caps; N, C: chain ends. Non-standard residues stand in square brackets, D forms with d. Residues, ends and D or L forms follow the SMILES beside them. *: point of attachment. Acetyl(1-adamantyl) = O=C(CC12CC3CC(CC(C3)C1)C2)*; Lauroyl = CCCCCCCCCCCC(=O)*; Dab = NCC[C@H](N)C(=O)O

Experiments:
P. aeruginosa 91433 = assay type: cell-based, Pseudomonas aeruginosa; conditions: 91433
Protocol: (§1) We then addressed the possibility for the dilipid polymyxins to display enhanced antibacterial activity against colistin-resistant Gram-negative pathogens. […] The extended hydrophobic region of the dilipid polymyxin may provide additional hydrophobic interactions to the outer membrane of colistin-resistant organisms. Eight MDR colistin-resistant Gram-negative bacterial isolates were tested, including two E. coli isolates harboring the mcr-1 plasmid-encoded polymyxin resistance gene. We found no difference between the antibacterial activity of dilipid polymyxins and colistin against colistin-resistant Gram-negative bacteria (Table 3).
(§2) Bacterial strains were either obtained from the American Type Culture Collection (ATCC), Canadian National Intensive Care Unit (CAN-ICU) surveillance study or the Canadian Ward Surveillance (CANWARD) study. Strains from both CAN-ICU and CANWARD are isolates recovered from patients diagnosed with a presumed infectious disease that were admitted in a participating medical center across Canada. Efflux-deficient strain PAO200 (lacking MexAB-OprM efflux system) and PA0750 (lacking MexAB-OprM, MexCD-OprJ, MexEF-OprN, MexJK and MexXY efflux systems, and the outer membrane protein OpmH) were kindly gifted by Dr. Ayush Kumar (University of Manitoba).
(§3) The in vitro antibacterial activity of the compounds studied were assessed by broth microdilution susceptibility testing following CLSI guidelines. Bacterial cultures were grown overnight prior to the assay. The overnight grown cultures were diluted in saline to 0.5 McFarland turbidity, followed by 1:50 dilution in Mueller-Hinton broth (MHB) for inoculation to a final concentration of approximately 5×10^5 colony forming units/mL. Testing was performed on 96-well plates where the tested compounds were 2-fold serially diluted in MHB and incubated with equal volumes of bacterial inoculum at 37° C. for 18 h. […] Wells containing MHB with or without bacterial cells were used as positive or negative control, respectively.

P. aeruginosa 114228 = assay type: cell-based, Pseudomonas aeruginosa; conditions: 114228
Protocol: as §1, §2, §3

P. aeruginosa 101243 = assay type: cell-based, Pseudomonas aeruginosa; conditions: 101243
Protocol: as §1, §2, §3

A. baumannii 92247 = assay type: cell-based, Acinetobacter baumannii; conditions: 92247
Protocol: as §1, §2, §3

[1] = tested on: P. aeruginosa CAN-ICU 62308; assay type: cell-based, Pseudomonas aeruginosa
Description: as §2, §3

P. aeruginosa ATCC 27853 = assay type: cell-based, Pseudomonas aeruginosa; conditions: P. aeruginosa ATCC 27853
Description: as §2, §3

P. aeruginosa PA095 = assay type: cell-based, Pseudomonas aeruginosa
Description: as §2, §3

[2] = tested on: P. aeruginosa PA262-101856; assay type: cell-based, Pseudomonas aeruginosa
Description: as §2, §3

P. aeruginosa PA101885 = assay type: cell-based, Pseudomonas aeruginosa
Description: as §2, §3

[3] = tested on: P. aeruginosa PA260-97103; assay type: cell-based, Pseudomonas aeruginosa
Description: as §2, §3

P. aeruginosa PA100036 = assay type: cell-based, Pseudomonas aeruginosa
Description: as §2, §3

[4] = tested on: P. aeruginosa PA259-96918; assay type: cell-based, Pseudomonas aeruginosa
Description: as §2, §3

[5] = tested on: P. aeruginosa PA264-104354; assay type: cell-based, Pseudomonas aeruginosa
Description: as §2, §3

P. aeruginosa PAO1 = assay type: cell-based, Pseudomonas aeruginosa
Description: as §2, §3

MRSE CAN-ICU 61589 = assay type: cell-based, S. epidermidis
Description: as §2, §3

K. pneumoniae ATCC 13883 = assay type: cell-based, Klebsiella pneumoniae; conditions: K. pneumoniae ATCC 13883
Description: as §2, §3

K. pneumoniae 116381 = assay type: cell-based, Klebsiella pneumoniae; conditions: K. pneumoniae 116381
Description: as §2, §3

E. coli 94393 = assay type: cell-based, Escherichia coli; conditions: 94393
Protocol: as §1, §2, §3

E. coli 94474 = assay type: cell-based, Escherichia coli; conditions: 94474
Protocol: as §1, §2, §3

A. baumannii ATCC 17978 = assay type: cell-based, Acinetobacter baumannii; conditions: A. baumannii ATCC 17978
Description: as §2, §3

A. baumannii LAC-4 = assay type: cell-based, Acinetobacter baumannii; conditions: A. baumannii LAC-4
Description: as §2, §3

[6] = tested on: A. baumannii CAN-ICU 63169; assay type: cell-based, Acinetobacter baumannii
Description: as §2, §3

A. baumannii AB027 = assay type: cell-based, Acinetobacter baumannii
Description: as §2, §3

A. baumannii AB031 = assay type: cell-based, Acinetobacter baumannii
Description: as §2, §3

A. baumannii 110193 = assay type: cell-based, Acinetobacter baumannii; conditions: A. baumannii 110193
Description: as §2, §3

MSSE CANWARD-2008 81388 = assay type: cell-based, Staphylococcus epidermidis; conditions: MSSE CANWARD-2008 81388 (methicillin-susceptible Staphylococcus epidermidis)
Description: as §2, §3

Row | SMILES | MIC (P. aeruginosa 91433) | MIC (P. aeruginosa 114228) | MIC (P. aeruginosa 101243) | MIC (A. baumannii 92247) | MIC (P. aeruginosa ATCC 27853) | MIC (K. pneumoniae ATCC 13883) | MIC (K. pneumoniae 116381) | MIC (E. coli 94393) | MIC (E. coli 94474) | MIC (A. baumannii ATCC 17978) | MIC (A. baumannii LAC-4) | MIC (A. baumannii 110193) | MIC (MSSE CANWARD-2008 81388) | other results
1 | CCCCCCCCCCCC(=O)NCC[C@H](NC(=O)CCCCCCCCCCC)C(=O)N[C@H](C(=O)N[C@@H](CCN)C(=O)N[C@H]1CCNC(=O)[C@H]([C@@H](C)O)NC(=O)[C@H](CCN)NC(=O)[C@H](CCN)NC(=O)[C@H](CC(C)C)NC(=O)[C@@H](Cc2ccccc2)NC(=O)[C@H](CCN)NC1=O)[C@@H](C)O [Compound 3, Didodecanoic Acid (Di-C12) Polymyxin] (Lauroyl-[Dab](Lauroyl)T[Dab][Dab][Dab][dF]L[Dab][Dab]T; lactam 4-C) | 8 µg/mL (≈ 5.6 µM) | >128 µg/mL | 16 µg/mL (≈ 11.2 µM) | 32 µg/mL (≈ 22.4 µM) | >128 µg/mL | >128 µg/mL | >128 µg/mL | 32 µg/mL (≈ 22.4 µM) | >64 µg/mL | >128 µg/mL | >128 µg/mL | >128 µg/mL | 64 µg/mL (≈ 44.8 µM) | MIC ([1]; CAN-ICU 62308): 64 µg/mL (≈ 44.8 µM); MIC (P. aeruginosa PA095; PA095): 8 µg/mL (≈ 5.6 µM); MIC ([2]; PA262-101856): 32 µg/mL (≈ 22.4 µM); MIC (P. aeruginosa PA101885; PA101885): 32 µg/mL (≈ 22.4 µM); MIC ([3]; PA260-97103): 32 µg/mL (≈ 22.4 µM); MIC (P. aeruginosa PA100036; PA100036): 32 µg/mL (≈ 22.4 µM); MIC ([4]; PA259-96918): 16 µg/mL (≈ 11.2 µM); MIC ([5]; PA264-104354): 64 µg/mL (≈ 44.8 µM); MIC (P. aeruginosa PAO1; PAO1): 32 µg/mL (≈ 22.4 µM); MIC (MRSE CAN-ICU 61589; CAN-ICU 61589): 64 µg/mL (≈ 44.8 µM); MIC ([6]; CAN-ICU 63169): 128 µg/mL (≈ 89.6 µM); MIC (A. baumannii AB027; AB027): 128 µg/mL (≈ 89.6 µM); MIC (A. baumannii AB031; AB031): 64 µg/mL (≈ 44.8 µM)
2 | CC(C)C[C@@H]1NC(=O)[C@@H](Cc2ccccc2)NC(=O)[C@H](CCN)NC(=O)[C@@H](NC(=O)[C@H](CCN)NC(=O)[C@@H](NC(=O)[C@H](CCNC(=O)CC23CC4CC(CC(C4)C2)C3)NC(=O)CC23CC4CC(CC(C4)C2)C3)[C@@H](C)O)CCNC(=O)[C@H]([C@@H](C)O)NC(=O)[C@H](CCN)NC(=O)[C@H](CCN)NC1=O [Compound 4, Diadamantane Acetic Acid (Di-Adamantyl) Polymyxin] ({Acetyl(1-adamantyl)}-[Dab](Acetyl(1-adamantyl))T[Dab][Dab][Dab][dF]L[Dab][Dab]T; lactam 4-C) | 8 µg/mL (≈ 5.65 µM) | 8 µg/mL (≈ 5.65 µM) | 64 µg/mL (≈ 45.2 µM) | 8 µg/mL (≈ 5.65 µM) | 16 µg/mL (≈ 11.3 µM) | >128 µg/mL | >128 µg/mL | 16 µg/mL (≈ 11.3 µM) | 8 µg/mL (≈ 5.65 µM) | 32 µg/mL (≈ 22.6 µM) | 16 µg/mL (≈ 11.3 µM) | 32 µg/mL (≈ 22.6 µM) | 16 µg/mL (≈ 11.3 µM) | MIC ([1]; P. aeruginosa CAN-ICU 62308): 16 µg/mL (≈ 11.3 µM); MIC (P. aeruginosa PA095; P. aeruginosa PA095): 4 µg/mL (≈ 2.83 µM); MIC ([2]; P. aeruginosa PA262-101856): 8 µg/mL (≈ 5.65 µM); MIC (P. aeruginosa PA101885; P. aeruginosa PA101885): 8 µg/mL (≈ 5.65 µM); MIC ([3]; P. aeruginosa PA260-97103): 4 µg/mL (≈ 2.83 µM); MIC (P. aeruginosa PA100036; P. aeruginosa PA100036): 8 µg/mL (≈ 5.65 µM); MIC ([4]; P. aeruginosa PA259-96918): 8 µg/mL (≈ 5.65 µM); MIC ([5]; P. aeruginosa PA264-104354): 8 µg/mL (≈ 5.65 µM); MIC (P. aeruginosa PAO1; P. aeruginosa PAO1 (wild type)): 4 µg/mL (≈ 2.83 µM); MIC (MRSE CAN-ICU 61589; MRSE CAN-ICU 61589 (methicillin-resistant S. epidermidis)): 16 µg/mL (≈ 11.3 µM); MIC ([6]; A. baumannii CAN-ICU 63169): 128 µg/mL (≈ 90.4 µM); MIC (A. baumannii AB027; A. baumannii AB027): 64 µg/mL (≈ 45.2 µM); MIC (A. baumannii AB031; A. baumannii AB031): 16 µg/mL (≈ 11.3 µM)
